Measurements reported in the supplement of paper PMC11061612.

How the values were obtained:
Assay in all cases: combination Emax (second highest fraction inhibited in the dose matrix, 72 h); higher = more inhibition; extreme values may be limits of the assay
[1] = system: A549 (Lung Adenocarcinoma)
How it was run: (§1)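 Cell lines in DMEM/F12 or RPMI with 10% FBS were plated in 1536-well plates, held 24 hours at 37°C, 5% CO2, then given two-drug dose matrices for 72 hours (DMSO typically 0.2%). Viability was read by CellTiter-Glo 2.0 luminescence and scaled as inhibition from 0 (vehicle wells) to 1 (blank wells). Combination Emax is the second-highest inhibition in the matrix; Bliss excess is observed combination effect minus expected EA + EB − EA·EB, EA and EB being single-agent effects.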

[2] = system: JSC-1 (B-Cell Non-Hodgkin's Lymphoma)
How it was run: as §1

[3] = system: ONS-76 (Other Solid Carcinomas)
How it was run: as §1

[4] = system: CAPAN-2 (Pancreatic Carcinoma)
How it was run: as §1

[5] = system: CAL-29 (Bladder Carcinoma)
How it was run: as §1

[6] = system: SISO (Cervical Carcinoma)
How it was run: as §1

[7] = system: VCaP (Prostate Carcinoma)
How it was run: as §1

[8] = system: TT (Thyroid Gland Carcinoma)
How it was run: as §1

Hs-445 (Non-Cancerous) = system: Hs-445 (Non-Cancerous)
How it was run: as §1

[9] = system: BICR22 (Oral Cavity Carcinoma)
How it was run: as §1

[10] = system: A3-KAW (B-Cell Non-Hodgkin's Lymphoma)
How it was run: as §1

[11] = system: COR-L311 (Small Cell Lung Carcinoma)
How it was run: as §1

IGR-37 (Melanoma) = system: IGR-37 (Melanoma)
How it was run: as §1

A498 (Kidney Carcinoma) = system: A498 (Kidney Carcinoma)
How it was run: as §1

[12] = system: OS-RC-2 (Kidney Carcinoma)
How it was run: as §1

[13] = system: PANC-10-05 (Pancreatic Carcinoma)
How it was run: as §1

ARH-77 (Non-Cancerous) = system: ARH-77 (Non-Cancerous)
How it was run: as §1

NY (Osteosarcoma) = system: NY (Osteosarcoma)
How it was run: as §1

8-MG-BA (Glioblastoma) = system: 8-MG-BA (Glioblastoma)
How it was run: as §1

CAS-1 (Glioblastoma) = system: CAS-1 (Glioblastoma)
How it was run: as §1

| Compound | combination Emax [1] | combination Emax [2] | combination Emax [3] | combination Emax [4] | combination Emax [5] | combination Emax [6] | combination Emax [7] | combination Emax [8] | combination Emax (Hs-445 (Non-Cancerous)) | combination Emax [9] | combination Emax [10] | combination Emax [11] | combination Emax (IGR-37 (Melanoma)) | combination Emax (A498 (Kidney Carcinoma)) | combination Emax [12] | combination Emax [13] | combination Emax (ARH-77 (Non-Cancerous)) | combination Emax (NY (Osteosarcoma)) | combination Emax (8-MG-BA (Glioblastoma)) | combination Emax (CAS-1 (Glioblastoma)) |
| --- | --- | --- | --- | --- | --- | --- | --- | --- | --- | --- | --- | --- | --- | --- | --- | --- | --- | --- | --- | --- |
| CN(C)CCCOc1ccc(-c2ccc3ncc4c(c3c2)n(C2CCOCC2)c(=O)n4C)cn1 [AZD0156] + C=CCn1c(=O)c2cnc(Nc3ccc(N4CCN(C)CC4)cc3)nc2n1-c1cccc(C(C)(C)O)n1 [AZD1775] (first compound max 1 µM, partner max 1 µM) | 0.317 | 0.868 | 0.675 | 0.39 | 0.642 | 0.566 | 0.553 | 0.271 | 0.926 | 0.516 | 0.95 | 0.56 | 0.706 | 0.544 | 0.326 | 0.361 | 0.944 | 0.555 | 0.74 | 0.464 |
| CN(C)CCCOc1ccc(-c2ccc3ncc4c(c3c2)n(C2CCOCC2)c(=O)n4C)cn1 [AZD0156] + CCN(CCO)CCCOc1ccc2c(Nc3cc(CC(=O)Nc4cccc(F)c4)[nH]n3)ncnc2c1 [AZD2811] (first compound max 1 µM, 7x7, partner max 1 µM) | 0.595 | 0.19 | 0.293 | 0.122 | 0.284 | 0.172 | 0.118 | 0.359 | 0.325 | 0.375 | 0.572 | 0.815 | 0.0663 | 0.172 | 0.11 | 0.218 | 0.492 | 0.0423 | 0.215 | 0.263 |
| CN(C)CCCOc1ccc(-c2ccc3ncc4c(c3c2)n(C2CCOCC2)c(=O)n4C)cn1 [AZD0156] + C[C@@H]1COCCN1C2=NC(=NC(=C2)C3(CC3)[S@](=N)(=O)C)C4=C5C=CNC5=NC=C4 [AZD6738] (first compound max 1 µM, 7x7, partner max 10 µM) | 0.789 | 0.916 | 0.942 | 0.395 | 0.772 | 0.588 | 0.359 | 0.429 | 0.868 | 0.724 | 0.995 | 0.408 | 0.781 | 0.703 | 0.425 | 0.41 | 0.975 | 0.555 | 0.834 | 0.582 |
| CN(C)CCCOc1ccc(-c2ccc3ncc4c(c3c2)n(C2CCOCC2)c(=O)n4C)cn1 [AZD0156] + O=C(c1cc(Cc2n[nH]c(=O)c3ccccc23)ccc1F)N1CCN(C(=O)C2CC2)CC1 [Olaparib] (first compound max 3 µM, partner max 3 µM) | 0.374 | 0.582 | 0.235 | 0.291 | 0.319 | 0.303 | 0.296 | 0.237 | 0.174 | 0.135 | 0.909 | 0.393 | 0.194 | 0.316 | 0.269 | 0.343 | 0.63 | 0.338 | 0.4 | 0.449 |
| C=CCn1c(=O)c2cnc(Nc3ccc(N4CCN(C)CC4)cc3)nc2n1-c1cccc(C(C)(C)O)n1 [AZD1775] + C1CN(CCC1(C(=O)N[C@@H](CCO)C2=CC=C(C=C2)Cl)N)C3=NC=NC4=C3C=CN4 [Capivasertib] (first compound max 3 µM, partner max 3 µM) | 0.664 | 0.911 | 0.76 | 0.513 | 0.839 | 0.731 | 0.647 | 0.264 | 0.855 | 0.594 | 0.987 | – | 0.813 | 0.671 | 0.406 | 0.594 | 0.983 | 0.737 | 0.975 | 0.709 |
| C=CCn1c(=O)c2cnc(Nc3ccc(N4CCN(C)CC4)cc3)nc2n1-c1cccc(C(C)(C)O)n1 [AZD1775] + C[C@@H]1COCCN1C2=NC(=NC(=C2)C3(CC3)[S@](=N)(=O)C)C4=C5C=CNC5=NC=C4 [AZD6738] (first compound max 1 µM, partner max 10 µM) | 0.829 | 0.905 | 0.942 | 0.486 | 0.794 | 0.822 | 0.602 | 0.441 | 0.914 | 0.799 | 0.992 | 0.801 | 0.787 | 0.682 | 0.453 | 0.513 | 1 | 0.665 | – | 0.657 |
| C=CCn1c(=O)c2cnc(Nc3ccc(N4CCN(C)CC4)cc3)nc2n1-c1cccc(C(C)(C)O)n1 [AZD1775] + O=C(c1cc(Cc2n[nH]c(=O)c3ccccc23)ccc1F)N1CCN(C(=O)C2CC2)CC1 [Olaparib] (first compound max 1 µM, partner max 10 µM) | 0.458 | 0.856 | 0.662 | 0.394 | 0.612 | 0.679 | 0.631 | 0.273 | 0.899 | 0.508 | 0.944 | 0.587 | 0.776 | 0.51 | 0.298 | 0.465 | 0.929 | 0.578 | 0.77 | 0.52 |
| CCN(CCO)CCCOc1ccc2c(Nc3cc(CC(=O)Nc4cccc(F)c4)[nH]n3)ncnc2c1 [AZD2811] + C=CCn1c(=O)c2cnc(Nc3ccc(N4CCN(C)CC4)cc3)nc2n1-c1cccc(C(C)(C)O)n1 [AZD1775] (first compound max 1 µM, partner max 1 µM) | 0.599 | 0.809 | 0.607 | 0.299 | 0.633 | 0.568 | 0.558 | 0.365 | 0.882 | 0.468 | 0.902 | 0.592 | 0.737 | 0.458 | 0.305 | 0.354 | 0.95 | 0.527 | 0.744 | 0.496 |
| COc1nnc2ccc(N3CCC(c4ccc(OCCN5CCN(C)C(=O)[C@H]5C)cc4)CC3)nn12 [AZD5153] + CN(CC[C@H](CSC1=CC=CC=C1)NC2=C(C=C(C=C2)S(=O)(=O)NC(=O)C3=CC=C(C=C3)N4CCC(CC4)[C@H](C5=CC=CC=C5C6=CC=C(C=C6)Cl)O)S(=O)(=O)C(F)(F)F)CCO [AZD4320] (first compound max 1 µM, 7x7, partner max 1 µM) | 0.735 | 0.71 | – | – | 0.401 | 0.419 | – | – | 0.889 | – | 1 | 1 | – | 0.66 | 0.292 | – | 0.965 | – | 0.772 | 0.587 |
| Cc1c2c(nn1C)CSCc1cc(n(C)n1)CSc1cc(c3ccccc3c1)OCCCc1c(C(=O)O)n(C)c3c-2c(Cl)ccc13 [AZD5991] + Cn1cnc2c(F)c(Nc3ccc(Br)cc3Cl)c(C(=O)NOCCO)cc21 [Selumetinib] (first compound max 1 µM, 7x7, partner max 3 µM) | 0.64 | 1 | 0.631 | 0.482 | 0.677 | 0.173 | 0.911 | 0.339 | 0.932 | 0.959 | 1 | 0.247 | 0.996 | 0.611 | 0.238 | 0.442 | – | 0.416 | 0.739 | 0.286 |
| CC(=O)c1c(C)c2cnc(Nc3ccc(N4CCNCC4)cn3)nc2n(C2CCCC2)c1=O [Palbociclib] + CN(CC[C@H](CSC1=CC=CC=C1)NC2=C(C=C(C=C2)S(=O)(=O)NC(=O)C3=CC=C(C=C3)N4CCC(CC4)[C@H](C5=CC=CC=C5C6=CC=C(C=C6)Cl)O)S(=O)(=O)C(F)(F)F)CCO [AZD4320] (first compound max 10 µM, 7x7, partner max 1 µM) | 0.723 | 0.59 | – | – | 0.172 | 0.126 | – | – | 0.95 | – | 0.867 | 1 | – | 0.658 | 0.365 | – | 0.899 | – | 0.337 | 0.405 |
| CCc1c2c(nc3ccc(O)cc13)-c1cc3c(c(=O)n1C2)COC(=O)[C@]3(O)CC [SN-38] + O=C(c1cc(Cc2n[nH]c(=O)c3ccccc23)ccc1F)N1CCN(C(=O)C2CC2)CC1 [Olaparib] (first compound max 0.3 µM, 7x7, partner max 10 µM) | 0.817 | 0.973 | 0.829 | 0.137 | – | 0.932 | 0.459 | 0.892 | 1 | 0.95 | – | – | 0.863 | 0.598 | – | 0.76 | 0.997 | 0.91 | 0.986 | 0.609 |
| C[C@@H](c1ccc2nccn2c1)n1nnc2ncc(-c3cnn(C)c3)nc21 [Savolitinib] + CN(CC[C@H](CSC1=CC=CC=C1)NC2=C(C=C(C=C2)S(=O)(=O)NC(=O)C3=CC=C(C=C3)N4CCC(CC4)[C@H](C5=CC=CC=C5C6=CC=C(C=C6)Cl)O)S(=O)(=O)C(F)(F)F)CCO [AZD4320] (first compound max 1 µM, 7x7, partner max 1 µM) | 0.165 | 0.117 | – | – | 0.174 | 0.0887 | – | – | 0.625 | – | 0.128 | 1 | – | 0.308 | 0.324 | – | 0.82 | – | 0.116 | 0.176 |
